Laboratory results published in patent publication US5395824A, “Dipeptide derivative and prophylactic and therapeutic agent for bone diseases containing the same” (Suntory Limited, priority 1991, dated 1995).

Key:
[1] = system: PTHrp(1-34)-Induced Hypercalcemia in Rats; test: Effect on PTHrp(1-34)-induced hypercalcemia in rats (i.p.); type: in vivo; conditions: male Wistar rats, 40 mg/kg i.p.; PTHrp(1-34) 5 nmole/kg i.v. two hours later; blood sample 1 hour after PTHrp; n = 5; PTHrp-only control 10.79 ± 0.13
Procedure: Some of the compounds shown in Table 1 were intraperitoneally administered to 5-week-old male Wistar rats each weighing 90 to 110 g (5 animals per group) at a dose of 40 mg/kg body weight. Two hours later, 5 nmole/kg of PTHrp(1-34) was intravenously injected. One hour after the administration of PTHrp(1-34), a blood sample was collected from each animal, and the blood calcium concentration was determined according to the same method as in Test Example 1.

[2] = system: PTHrp(1-34)-Induced Hypercalcemia in Rats; test: Effect on PTHrp(1-34)-induced hypercalcemia in rats (p.o.); type: in vivo; conditions: male Wistar rats, 40 mg/kg p.o.; PTHrp(1-34) 5 nmole/kg i.v. four hours later; blood sample 1 hour after PTHrp; n = 5; PTHrp-only control 10.84 ± 0.11
Procedure: Some of the compounds shown in Table 1 were orally administered to 5-week-old male Wistar rats weighing from […] to 110 g (5 animals per group) at a dose of 40 mg/kg body weight. Four hours later, 5 nmole/kg of PTHrp(1-34) was intravenously injected into the animals. One hour after the administration of PTHrp(1-34)sequence ID No. 1, a blood sample was collected from each rat, and the blood calcium concentration was determined by the octocresolphthalein complexone method.

Row | Compound | Ca Conc. ± S.E. (average blood calcium concentration) [1] [mg/dL] | Ca Conc. ± S.E. (average blood calcium concentration) [2] [mg/dL]
1 | CCCCC(NC(=O)[C@H](CC(C)C)NC(=O)OCc1ccccc1)C(=O)C(=O)OCC (stereo partly drawn) [Example 1, N-Benzyloxycarbonyl-L-leueine-(1-ethoxalyl)pentylamide] | 10.33 ± 0.12 | 
2 | CCCCC(NC(=O)[C@H](CC(C)C)NC(=O)OCc1ccccc1)C(OC)OC (stereo partly drawn) [Example 7, N-Benzyloxycarbonyl-L-leucine-(1-dimethoxymethyl)pentylamide] | 10.29 ± 0.14 | 10.36 ± 0.11
3 | CCCCC(NC(=O)[C@H](CC(C)C)NC(=O)OCc1ccccc1)C1OCCO1 (stereo partly shown) [Example 9] |  | 10.41 ± 0.08
4 | CCCCC(NC(=O)[C@H](CC(C)C)NC(=O)OCc1ccccc1)C(OC(C)=O)OC(C)=O (stereo partly drawn) [Example 12, N-Benzyloxycarbonyl-L-leucine-(1-diacetoxymethyl)pentylamide] | 10.27 ± 0.08 | 
5 | CCCCC(NC(=O)[C@H](CC(C)C)NC(=O)OCc1ccccc1)C1SCCS1 (stereo partly drawn) [Example 13, N-Benzyloxycarbonyl-L-leucine-[1-(1,3-dithiolan-2-yl)]pentylamide] | 10.23 ± 0.05 | 
6 | CCCCC(NC(=O)[C@H](CC(C)C)NC(=O)OCc1ccccc1)C1NCCS1 (stereo partly drawn) [Example 15, N-Benzyloxycarbonyl-L-leucine-[1-(thiazolidine-2-yl)]pentylamide] | 10.13 ± 0.21 | 9.98 ± 0.13
7 | CCCCC(NC(=O)[C@H](CC(C)C)NC(C)=O)C(OC)OC (stereo partly drawn) [Example 16, N-Acetyl-L-leucine-(1-dimethoxymethyl)pentylamide] | 9.95 ± 0.14 | 9.91 ± 0.13
8 | CCCCC(NC(=O)[C@H](CC(C)C)NC(C)=O)C1OCCO1 (stereo partly drawn) [Example 17, N-Acetyl-L-leucine-[1-(1,3-dioxolan-2-yl)]pentylamide] | 10.16 ± 0.05 | 9.97 ± 0.17
9 | CCCCC(NC(=O)[C@H](CC(C)C)NC(C)=O)C1NCCS1 (stereo partly drawn) [Example 21, N-Acetyl-L-leucine-[1-(thiazolidine-2-yl)]pentylamide] | 9.96 ± 0.07 | 9.98 ± 0.10
10 | CCCCC(NC(=O)[C@H](CC(C)C)NC(C)=O)C(OCC)OCC (stereo partly drawn) [Example 22, N-Acetyl-L-leucine-(1-diethoxymethyl)pentylamide] | 9.67 ± 0.18 | 10.05 ± 0.13
11 | CCCCC(NC(=O)[C@H](CC(C)C)NC(=O)C(C)C)C(OC)OC (stereo partly drawn) [Example 23, N-Isobutyryl-L-leucine-(1-dimethoxymethyl)pentylamide] |  | 9.83 ± 0.13
12 | CCCCC(NC(=O)[C@H](CC(C)C)NC(=O)CCl)C(OC)OC (stereo partly drawn) [Example 24, N-Chloroacetyl-L-leucine-(1-dimethoxymethyl)pentylamide] |  | 10.12 ± 0.09
13 | CCCCC(NC(=O)[C@H](CC(C)C)NC(=O)CC)C(OC)OC (stereo partly drawn) [Example 25, N-Propionyl-L-leucine-(1-dimethoxymethyl)pentylamide] |  | 9.88 ± 0.09
14 | CCCCC(NC(=O)[C@H](CC(C)C)NC(=O)CCC)C(OC)OC (stereo partly drawn) [Example 26, N-Butyryl-L-leucine-(1-dimethoxymethyl)pentylamide] |  | 9.85 ± 0.08
15 | CCCCC(NC(=O)[C@H](CC(C)C)NC(=O)C(F)(F)F)C(OC)OC (stereo partly drawn) [Example 27, N-Trifluoroacetyl-L-leucine-(1-dimethoxymethyl)pentylamide] |  | 9.91 ± 0.13
16 | CC(C)CC(C=O)NC(=O)[C@H](CC(C)C)NC(=O)OCc1ccccc1 (stereo partly drawn) [Example 33, N-Benzyloxycarbonyl-L-leucine-(1-formyl-3-methyl)butylamide] |  | 10.26 ± 0.13
